# Data published in PubChem BioAssay AID2337 (Sanford-Burnham Center for Chemical Genomics, 2010).
# Test system: TNFa-induced NF-kB reporter cells, inhibition
# Experiment: TNFa-triggered NF-kB activation inhibitors, SAR follow-up, cell-based, revised (AID 2337)
row,SMILES,IC50 [µM]
1,CC1Sc2ccc(S(=O)(=O)N3CCC(C(=O)Nc4ccc(Cl)cc4)CC3)cc2NC1=O (configuration not stated),3.15
2,O=C(Nc1nc2c(F)cc(F)cc2s1)c1ccc([N+](=O)[O-])o1,19.7
